Results: paper PMC8161398, “Targeting Lactate Dehydrogenase A with Catechin Resensitizes SNU620/5FU Gastric Cancer Cells to 5-Fluorouracil” (International Journal of Molecular Sciences, 2021)

Experiments:
[1] = target: T1, lactate dehydrogenase B (LDHB) (Homo sapiens, UniProt P07195); assay: LDHB activity assay (NADH fluorescence), dose-dependent; assay type: biochemical
T1 construct: purified recombinant LDHB

[2] = target: T2, lactate dehydrogenase A (LDHA) (Homo sapiens, UniProt P00338); assay: LDHA activity assay (NADH fluorescence), dose-dependent; assay type: biochemical
T2 construct: purified recombinant LDHA

[3] = target: T2, lactate dehydrogenase A (LDHA); assay: ITC; also purified LDHA activity assay by NADH fluorescence (IC50 =[…]); assay type: binding

T1 sequence (P07195 2-334): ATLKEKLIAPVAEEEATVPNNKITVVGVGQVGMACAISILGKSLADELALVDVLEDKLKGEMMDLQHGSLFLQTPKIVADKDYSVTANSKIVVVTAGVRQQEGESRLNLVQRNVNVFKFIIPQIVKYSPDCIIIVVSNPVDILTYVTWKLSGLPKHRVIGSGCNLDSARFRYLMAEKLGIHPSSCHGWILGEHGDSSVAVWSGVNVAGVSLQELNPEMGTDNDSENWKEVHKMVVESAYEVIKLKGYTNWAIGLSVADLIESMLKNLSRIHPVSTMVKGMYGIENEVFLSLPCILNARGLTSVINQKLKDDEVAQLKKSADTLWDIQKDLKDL

Compound | LDHB activity assay (NADH fluorescence), dose-dependent [1] | LDHA activity assay (NADH fluorescence), dose-dependent [2] | Kd [3] [µM]
O=C(O[C@@H]1Cc2c(O)cc(O)cc2O[C@@H]1c1cc(O)c(O)c(O)c1)c1cc(O)c(O)c(O)c1 [EGCG, epigallocatechin-3-gallate] | exert inhibitory effects on both LDHA and LDHB activities | LDHA and LDHB activities were measured with EGCG, which is known to inhibit LDHA activity | –
Oc1cc(O)c2c(c1)OC(c1ccc(O)c(O)c1)C(O)C2 (stereo not drawn) [CA, Catechin] | – | – | 197
